Assay results taken from patent US20230131899A1, “INHIBITORS OF MICROBIALLY INDUCED AMYLOID” (Axial Therapeutics, Inc., priority 2020, published 2023).
Like-named read-outs stand apart in the source and are kept apart here.

What was measured:
human α-synuclein = target: T1, human α-synuclein (Homo sapiens, UniProt P37840); test: Cell-free Thioflavin T assay of α-synuclein aggregation (αSyn ThT Assay); format: biochemical; conditions: αSyn 50 μM, compounds 100 μM
T1 construct: the full-length gene for untagged human α-synuclein was inserted; made in house; host or cells: E. coli BL21(DE3), plasmid derived from pT7 or pET11a
Procedure, shortened: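 Inhibition is reported as 100% minus background-corrected ThT signal relative to vehicle wells, taken at 36, 47, 48 or 72 h or the last read. Reactions held 50 μM recombinant α-synuclein, 20-100 μM compound, 20-40 μM ThT and 1% DMSO. Incubation was at 37° C., shaken, with a glass bead.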

[1] = tested on: CsgA gene expression (csgBAC promoter-GFP reporter) in E. coli UTI89; test: In vitro live cell fluorescent reporter assay of CsgA transcription (Reporter Assay); format: cell-based; conditions: Escherichia coli
Procedure, shortened: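 Compounds at 0.14–100 μM (1% DMSO final) incubated 20 h at 27 °C in YESCA broth with UTI89 carrying a single-copy GFP reporter under the csgBAC intergenic promoter region, inoculum OD600 0.003. Fluorescence normalized to vehicle wells gave IC50 and 50%-of-vehicle concentration; OD600 reduction >10% flagged growth impact.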

[2] = class symbol, read-out: αSyn ThT Assay % inhibition, activity range
[3] = mean percent inhibition relative to DMSO control, read-out: αSyn ThT Assay % inhibition
[4] = read-out: Reporter Assay Abs IC50 (μM), median Abs IC50 in the CsgA reporter assay, N/A = maximum expression reduction is <50% of control
[5] = read-out: Reporter Assay Abs IC50, activity range, class symbol

SMILES	inhibition at 100 µM (human α-synuclein; [2])	inhibition at 100 µM (human α-synuclein; [3])	IC50 [1, 4]	IC50 [1, 5]
O=C(O)C1CN(CCc2cccc3ccccc23)c2c(-c3cccc(C(F)(F)F)c3)c(Cc3cccc4ccccc34)c(Cl)c(=O)n21 (centres unmarked) [Compound 238, 6-chloro-1-(2-(naphthalen-1-yl)ethyl)-7-(naphthalen-1-ylmethyl)-5-oxo-8-(3-(trifluoromethyl)phenyl)-1,2,3,5-tetrahydroimidazo[1,2-a]pyridine-3-carboxylic acid]	> 60%	94%	0.7 µM	< 1.3 µM
CC(C)(C)c1ccc(CCN2CC(C(=O)O)n3c2c(-c2cccc(C(F)(F)F)c2)c(Cc2cccc4ccccc24)c(Cl)c3=O)cc1 (centres unmarked) [Compound 239, 1-(4-(tert-butyl)phenethyl)-6-chloro-7-(naphthalen-1-ylmethyl)-5-oxo-8-(3-(trifluoromethyl)phenyl)-1,2,3,5-tetrahydroimidazo[1,2-a]pyridine-3-carboxylic acid]	31 to 60%	58%	0.6 µM	< 1.3 µM
